# Experimental data taken from patent US9796716B2, “Selective inhibitors of Tec and Src protein kinase families” (Pharmascience, Inc., priority 2012, dated 2017).
# Tests used:
# [1] = biological target: recombinant human full-length Bruton Agammaglobulinemia Tyrosine Kinase (Btk) (Homo sapiens (Human), UniProt Q06187); test: Btk Kinase Inhibition Assay (fluorescence polarization); assay type: biochemical; conditions: 10 μM ATP, 250 μM substrate, 60 minutes; Ki calculated from IC50 using the Cheng-Prusoff equation
# Protocol: Kinase Binding Btk Kinase Inhibition Assay
# Fluorescence polarization-based kinase assays were performed in 384 well-plate format using histidine tagged recombinant human full-length Bruton Agammaglobulinemia Tyrosine Kinase (Btk) and a modified protocol of the KinEASE™ FP Fluorescein Green Assay supplied from Millipore. Kinase reaction were performed at room temperature for 60 minutes in presence of 250 μM substrate, 10 μM ATP and variable test article concentrations. The reaction was stopped with EDTA/kinase detection reagents and the polarization measured on a Tecan 500 instrument. From the dose-response curve obtained, the IC50 was calculated using Graph Pad Prisms® using a non linear fit curve. The Km for ATP on each enzyme was experimentally determined and the Ki values calculated using the Cheng-Prusoff equation (see: Cheng Y, Prusoff W H. (1973) Relationship between the inhibition constant (K1) and the concentration of inhibitor which causes 50 percent inhibition (I50) of an enzymatic reaction”. Biochem Pharmacol 22 (23): 3099-108).
# [2] = tested on: Splenocytes (B cell proliferation stimulated with anti-IgM F(ab′)2); test: Splenic Cell Proliferation Assay; assay type: cell-based; conditions: Mus musculus, Splenocyte, 72 h, CD1 mouse splenocytes, 2.5 ug/ml anti-IgM F(ab′)2 for 72 h, Cell Titer-Glo; read-out: EC50 (nM), Inhibition of splenic cell proliferation
# Protocol: Splenic Cell Proliferation Assay
# Splenocytes were obtained from 6 week old male CD1 mice (Charles River Laboratories Inc.). Mouse spleens were manually disrupted in PBS and filtered using a 70 um cell strainer followed by ammonium chloride red blood cell lysis. Cells were washed, resuspended in Splenocyte Medium (HyClone RPMI supplemented with 10% heat-inactivated FBS, 0.5× non-essential amino acids, 10 mM HEPES, 50 uM beta mercaptoethanol) and incubated at 37° C., 5% CO2 for 2 h to remove adherent cells. Suspension cells were seeded in 96 well plates at 50,000 cells per well and incubated at 37° C., 5% CO2 for 1 h. Splenocytes were pre-treated in triplicate with 10,000 nM curves of Formula 1 compounds for 1 h, followed by stimulation of B cell proliferation with 2.5 ug/ml anti-IgM F(ab′)2 (Jackson ImmunoResearch) for 72 h. Cell proliferation was measured by Cell Titer-Glo Luminescent Assay (Promega). EC50 values (50% proliferation in the presence of compound as compared to vehicle treated controls) were calculated from dose response compound curves using GraphPad Prism Software.
# recombinant human full-length Bruton Agammaglobulinemia Tyrosine Kinase (Btk), sequence (Q06187 whole entry): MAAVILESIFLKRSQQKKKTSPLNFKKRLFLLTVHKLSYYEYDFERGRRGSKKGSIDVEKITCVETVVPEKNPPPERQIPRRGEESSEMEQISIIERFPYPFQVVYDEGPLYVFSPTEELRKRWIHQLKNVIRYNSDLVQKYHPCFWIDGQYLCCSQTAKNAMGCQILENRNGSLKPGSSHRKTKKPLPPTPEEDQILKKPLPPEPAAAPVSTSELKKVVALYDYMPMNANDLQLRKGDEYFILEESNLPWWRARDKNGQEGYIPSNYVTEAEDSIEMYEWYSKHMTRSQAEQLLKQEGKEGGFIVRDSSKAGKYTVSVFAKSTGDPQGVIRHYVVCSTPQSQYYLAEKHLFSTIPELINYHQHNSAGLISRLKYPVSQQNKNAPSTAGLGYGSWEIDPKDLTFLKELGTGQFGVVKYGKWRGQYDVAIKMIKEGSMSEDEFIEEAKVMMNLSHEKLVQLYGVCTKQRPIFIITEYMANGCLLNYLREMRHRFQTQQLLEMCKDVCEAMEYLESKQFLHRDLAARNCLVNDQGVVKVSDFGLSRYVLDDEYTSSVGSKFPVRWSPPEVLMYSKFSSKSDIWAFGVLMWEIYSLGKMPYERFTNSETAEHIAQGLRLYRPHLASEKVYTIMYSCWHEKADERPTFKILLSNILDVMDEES
SMILES,Ki [1] [nM],EC50 [2] [nM]
Nc1ncnc2[nH]nc(-c3ccc(Oc4cccc(OCc5ccccc5)c4)cc3)c12 [Compound 1],< 100,100 to 1000
Nc1ncnc2c1c(-c1ccc(Oc3cccc(OCc4ccccc4)c3)cc1)nn2C1CCCC1 [Compound 2],< 100,100 to 1000
Nc1ncnc2c1c(-c1ccc(Oc3cccc(OCc4ccccc4)c3)cc1)nn2[C@@H]1CCCNC1 [Compound 4],< 100,100 to 1000
CCCC(=O)N1CCC[C@@H](n2nc(-c3ccc(Oc4cccc(OCc5ccccc5)c4)cc3)c3c(N)ncnc32)C1 [Compound 7],< 100,100 to 1000
Nc1ncnc2c1c(-c1ccc(Oc3cccc(OCc4ccc(Cl)cc4)c3)cc1)nn2C1CCCC1 [Compound 9],< 100,100 to 1000
COc1cccc(COc2cccc(Oc3ccc(-c4nn(C5CCCC5)c5ncnc(N)c45)cc3)c2)c1 [Compound 10],< 100,100 to 1000
Cc1ncc(COc2cccc(Oc3ccc(-c4nn(C)c5ncnc(N)c45)cc3)c2)s1 [Compound 18],< 100,< 100
Cn1nc(-c2ccc(Oc3cccc(OCc4ccccc4C(F)(F)F)c3)cc2)c2c(N)ncnc21 [Compound 20],< 100,< 100
N#Cc1ccccc1OCc1cccc(Oc2ccc(-c3nn(C4CCOCC4)c4ncnc(N)c34)cc2)c1 [Compound 22],< 100,< 100
CC(=O)N1CCC[C@@H](n2nc(-c3ccc(Oc4cccc(COc5ccccc5C#N)c4)cc3)c3c(N)ncnc32)C1 [Compound 25],< 100,< 100
CC(=O)N1CCC[C@@H](n2nc(-c3ccc(Oc4cccc(OCc5ccccc5C(F)(F)F)c4)cc3)c3c(N)ncnc32)C1 [Compound 26],< 100,< 100
CC(=O)N1CCC[C@@H](n2nc(-c3ccc(Oc4cccc(OCc5ccccc5C#N)c4)cc3)c3c(N)ncnc32)C1 [Compound 28],< 100,< 100
Nc1ncnc2c1c(-c1ccc(Oc3cccc(OCc4ccccc4C(F)(F)F)c3)cc1)nn2C1CCCC1 [Compound 29],< 100,< 100
Nc1ncnc2c1c(-c1ccc(Oc3cccc(COc4ccccc4C(F)(F)F)c3)cc1)nn2C1CCCC1 [Compound 32],< 100,< 100
N#Cc1ccccc1COc1cccc(Oc2ccc(-c3nn(C4CCOCC4)c4ncnc(N)c34)cc2)c1 [Compound 35],< 100,< 100
Cc1ncc(COc2cccc(Oc3ccc(-c4nn(C5CCOCC5)c5ncnc(N)c45)cc3)c2)s1 [Compound 38],< 100,< 100
Nc1ncnc2c1c(-c1ccc(Oc3cccc(OCc4cncs4)c3)cc1)nn2CCN1CCCC1 [Compound 39],< 100,100 to 1000
Nc1ncnc2c1c(-c1ccc(Oc3cccc(OCc4cncs4)c3)cc1)nn2CCc1ccncc1 [Compound 41],< 100,100 to 1000
Nc1ncnc2c1c(-c1ccc(Oc3cccc(OCc4cncs4)c3)cc1)nn2C1CCNCC1 [Compound 43],< 100,100 to 1000
Nc1ncnc2c1c(-c1ccc(Oc3cccc(OCc4cncs4)c3)cc1)nn2CCN1CCOCC1 [Compound 44],< 100,< 100
CC(=O)n1nc(-c2ccc(Oc3cccc(OCc4ccccc4)c3)cc2)c2c(N)ncnc21 [Compound 45],,100 to 1000
CC(=O)N1CCC(n2nc(-c3ccc(Oc4cccc(OCc5cncs5)c4)cc3)c3c(N)ncnc32)CC1 [Compound 47],< 100,< 100
Cc1ncc(COc2cc(F)cc(Oc3ccc(-c4nn(C[C@@H]5CCCN5)c5ncnc(N)c45)cc3)c2)s1 [Compound 56],,100 to 1000
[2H]C([2H])(Oc1cc(F)cc(Oc2ccc(-c3nn(C4CCOCC4)c4ncnc(N)c34)c(F)c2)c1)c1cncn1C [Compound 89],,< 100
[2H]C([2H])(Oc1cc(F)cc(Oc2ccc(-c3nn(C4CCOCC4)c4ncnc(N)c34)cc2)c1)c1ccc(C)nc1 [Compound 94],,< 100

# Further lines, with some results ahead:
Ki [1] [nM],SMILES,EC50 [2] [nM]
< 100,CC(C)(C)OC(=O)N1CCC[C@@H](n2nc(-c3ccc(Oc4cccc(OCc5ccccc5)c4)cc3)c3c(N)ncnc32)C1 [Compound 3],100 to 1000
< 100,C=CC(=O)N1CCC[C@@H](n2nc(-c3ccc(Oc4cccc(OCc5ccccc5)c4)cc3)c3c(N)ncnc32)C1 [Compound 5],< 100
< 100,CC(=O)N1CCC[C@@H](n2nc(-c3ccc(Oc4cccc(OCc5ccccc5)c4)cc3)c3c(N)ncnc32)C1 [Compound 6],< 100
< 100,CC(C)C(=O)N1CCC[C@@H](n2nc(-c3ccc(Oc4cccc(OCc5ccccc5)c4)cc3)c3c(N)ncnc32)C1 [Compound 8],< 100
< 100,COc1ccc(COc2cccc(Oc3ccc(-c4nn(C5CCCC5)c5ncnc(N)c45)cc3)c2)cc1 [Compound 11],100 to 1000
< 100,N#Cc1ccccc1COc1cccc(Oc2ccc(-c3nn(C4CCCC4)c4ncnc(N)c34)cc2)c1 [Compound 12],100 to 1000
< 100,Nc1ncnc2c1c(-c1ccc(Oc3cccc(COc4ccccc4)c3)cc1)nn2C1CCCC1 [Compound 13],< 100
< 100,Cn1nc(-c2ccc(Oc3cccc(OCc4ccccc4)c3)cc2)c2c(N)ncnc21 [Compound 16],100 to 1000
< 100,Cn1nc(-c2ccc(Oc3cccc(COc4ccccc4C#N)c3)cc2)c2c(N)ncnc21 [Compound 17],100 to 1000
< 100,Cn1nc(-c2ccc(Oc3cccc(OCc4cncs4)c3)cc2)c2c(N)ncnc21 [Compound 19],100 to 1000
< 100,Nc1ncnc2c1c(-c1ccc(Oc3cccc(OCc4ccccc4)c3)cc1)nn2C1CCOCC1 [Compound 21],< 100
< 100,Nc1ncnc2c1c(-c1ccc(Oc3cccc(OCc4ccccc4C(F)(F)F)c3)cc1)nn2C1CCOCC1 [Compound 23],< 100
< 100,CC(=O)N1CCC[C@@H](n2nc(-c3ccc(Oc4cccc(OCc5cncs5)c4)cc3)c3c(N)ncnc32)C1 [Compound 27],< 100
< 100,Cn1nc(-c2ccc(Oc3cccc(OCc4ccccc4C#N)c3)cc2)c2c(N)ncnc21 [Compound 30],< 100
< 100,Cn1nc(-c2ccc(Oc3cccc(COc4ccccc4C(F)(F)F)c3)cc2)c2c(N)ncnc21 [Compound 31],100 to 1000
< 100,CC(=O)N1CCC[C@@H](n2nc(-c3ccc(Oc4cccc(COc5ccccc5C(F)(F)F)c4)cc3)c3c(N)ncnc32)C1 [Compound 33],< 100
< 100,CN(C)CCn1nc(-c2ccc(Oc3cccc(OCc4cncs4)c3)cc2)c2c(N)ncnc21 [Compound 34],100 to 1000
< 100,Nc1ncnc2c1c(-c1ccc(Oc3cccc(COc4ccccc4C(F)(F)F)c3)cc1)nn2C1CCOCC1 [Compound 36],< 100
< 100,Cc1ncc(COc2cccc(Oc3ccc(-c4nn(C5CCCC5)c5ncnc(N)c45)cc3)c2)s1 [Compound 37],< 100
< 100,CN1CCN(CCn2nc(-c3ccc(Oc4cccc(OCc5cncs5)c4)cc3)c3c(N)ncnc32)CC1 [Compound 40],100 to 1000
< 100,Nc1ncnc2c1c(-c1ccc(Oc3cccc(OCc4cncs4)c3)cc1)nn2CCc1ccccc1 [Compound 42],< 100
